Measurements reported in patent publication US8076359B2, “Renin inhibitors” (Merck Canada Inc., priority 2006, dated 2011).

How the values were obtained:
renin in human plasma = target: T1, renin in human plasma (Homo sapiens, UniProt P00797); experiment: Inhibition of renin in human plasma (enzymatic in vitro assay, Ang I detected by EIA); assay type: biochemical; conditions: human plasma from 10 normal donors; human recombinant renin 3 pM; 37° C. for 2 h
T1 construct: host or cells: recombinant enzyme added to human plasma from 10 normal donors
T1 sequence (P00797 67-406): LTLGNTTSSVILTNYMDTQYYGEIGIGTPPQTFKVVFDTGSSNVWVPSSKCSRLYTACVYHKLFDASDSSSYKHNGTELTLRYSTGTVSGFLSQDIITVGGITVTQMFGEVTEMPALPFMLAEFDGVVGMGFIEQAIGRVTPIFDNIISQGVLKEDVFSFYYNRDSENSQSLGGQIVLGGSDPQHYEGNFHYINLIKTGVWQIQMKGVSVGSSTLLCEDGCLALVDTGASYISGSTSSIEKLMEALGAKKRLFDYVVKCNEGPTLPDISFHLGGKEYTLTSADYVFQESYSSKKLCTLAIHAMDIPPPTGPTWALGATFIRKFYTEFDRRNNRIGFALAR
Procedure: Inhibition of Renin in Human Plasma
The enzymatic in vitro assay was performed in 384-well polypropylene plates (Nunc). The assay buffer consisted of PBS (Gibco BRL) including 1 mM EDTA and 0.1% BSA. The reaction mixture was composed of 80 μL per well of human plasma, enzyme, Ang I-antibodies mix and 5 μL of renin inhibitors in DMSO. The human plasma mix was premixed at 4° C. and consists of • human plasma from 10 normal donors • human recombinant renin (3 pM) • Ang I-antibodies. The mixtures were then incubated at 37° C. for 2 h.
To determine the enzymatic activity and its inhibition, the accumulated Ang I was detected by an enzyme immunoassay (EIA) in 384-well plates (Nunc). 10 μL of the reaction mixture or standards were transferred to immuno plates which were previously coated with a covalent complex of Ang I and bovine serum albumin (Ang I-BSA). 70 μL assay buffer were added and the plates were incubated at 4° C. overnight. The plates were washed 3 times with PBS including 0.01% Tween 20, and then incubated for 2 h at RT with an anti rabbit-peroxidase coupled antibody (WA 934, Amersham).

human recombinant renin = target: T2, human recombinant renin (Homo sapiens, UniProt P00797); experiment: Inhibition of human recombinant renin (enzymatic in vitro assay in buffer, Ang I detected by EIA); assay type: biochemical; conditions: assay buffer PBS, 1 mM EDTA, 0.1% BSA; human recombinant renin 40 pM; 37° C. for 3 h
T2 sequence (P00797 67-406): T1 sequence (P00797 67-406)
Procedure: Inhibition of Human Recombinant Renin
The enzymatic in vitro assay was performed in 384-well polypropylene plates (Nunc). The assay buffer consisted of PBS (Gibco BRL) including 1 mM EDTA and 0.1% BSA. The reaction mixture were composed of 47.5 μL per well of an enzyme mix and 2.5 μL of renin inhibitors in DMSO. The enzyme mix was premixed at 4° C. and consists of the following components: • human recombinant renin (40 pM) • synthetic human angiotensin(1-14) (0.5 μM) • hydroxyquinoline sulfate (1 mM) The mixtures were then incubated at 37° C. for 3 h. The enzyme reaction was stopped by placing the reaction plate on wet ice.
To determine the enzymatic activity and its inhibition, the accumulated Ang I was detected by an enzyme immunoassay (EIA) in 384-well plates (Nunc). 5 μL of the reaction mixture or standards were transferred to immuno plates which were previously coated with a covalent complex of Ang I and bovine serum albumin (Ang I-BSA). 75 μL of Ang I-antibodies in assay buffer above including 0.01% Tween 20 were added and the plates were incubated at 4° C. overnight.
An alternative protocol could be used by stopping the enzymatic reaction with 0.02N final concentration of HCl. 5 μL of the reaction mixture or standards were transferred to immuno plates and 75 μL of Ang I-antibodies in assay buffer above including 0.01% Tween 20 were added and the plates were incubate at RT for 4 h. […]

| Structure (SMILES) | IC50 (renin in human plasma) [nM] | IC50 (human recombinant renin) [nM] |
| --- | --- | --- |
| COCCCc1cc(CN(C(=O)[C@H]2CNCC[C@@H]2c2ccc(OCCOc3c(Cl)cc(C)cc3Cl)cc2)C2CC2)cc(OC[C@@H]2C[C@H]2CO)c1 [Example 8] | 2.6 | 0.036 |
| COCCCc1cc(CN(C(=O)[C@H]2CNCC[C@@H]2c2ccc(OCCOc3c(Cl)cc(C)cc3Cl)nc2)C2CC2)cc(OCCOC)c1 [Example 2, (3R,4S)-N-Cyclopropyl-4-{6-[2-(2,6-dichloro-4-methylphenoxy)ethoxy]pyridin-3-yl}-N-[3-(2-methoxyethoxy)-5-(3-methoxypropyl)benzyl]piperidine-3-carboxamide] | 6 | 0.022 |
